Key:
[1] = biological target: T1, AGTR1 (Homo sapiens, UniProt P30556); experiment: DiscoveRx β-arrestin2 recruitment assay (enzyme complementation, Pathunter CHO-K1 AGTR1 β-arrestin cell line); format: cell-based; conditions: DiscoveRx β-arrestin2 recruitment; for DiscoveRx β-arrestin2 Ymax (%): maximal response
T1 construct: host or cells: Pathunter CHO-K1 AGTR1 β-arrestin cell line (CHO-K1)
T1 sequence (P30556 1-359): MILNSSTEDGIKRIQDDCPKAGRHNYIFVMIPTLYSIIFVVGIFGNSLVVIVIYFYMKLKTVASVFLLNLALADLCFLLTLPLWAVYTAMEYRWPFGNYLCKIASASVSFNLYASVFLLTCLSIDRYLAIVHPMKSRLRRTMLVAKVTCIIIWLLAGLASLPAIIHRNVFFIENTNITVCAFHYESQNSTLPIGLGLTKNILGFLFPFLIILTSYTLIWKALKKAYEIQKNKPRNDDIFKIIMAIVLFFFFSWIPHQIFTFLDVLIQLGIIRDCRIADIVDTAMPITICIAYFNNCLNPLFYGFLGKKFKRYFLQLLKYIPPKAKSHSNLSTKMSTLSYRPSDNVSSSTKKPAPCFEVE
Method in brief: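 Chemiluminescent enzyme-complementation read-out of β-arrestin2 recruitment to AGTR1 in engineered CHO-K1 cells after 90 min compound exposure at 37° C. Values are 4-parameter logistic EC50s in agonist mode, IC50s in antagonist mode, with efficacy relative to the maximal All response.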

[2] = biological target: T1, AGTR1; experiment: DiscoveRx IP1 accumulation assay (HTRF), agonist mode, Pathunter CHO-K1 AGTR1 β-arrestin cell line; format: cell-based; conditions: for EC50: read-out: IP-1 EC50
Method in brief: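 Agonist mode in CHO-K1 AGTR1 β-arrestin cells plated 14-16 h before; compounds at varying concentrations for 90 min at 37° C, IP1 accumulation read by HTRF (D2-conjugate and anti-IP1 cryptate, 20 min room temperature). EC50 from 4-parameter logistic fit; activity given as percentage of maximal AII effect.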

[3] = biological target: T2, hAT1R (Homo sapiens, UniProt P30556); experiment: BRET β-arrestin2 biosensor assay, higher receptor expression (hAT1R 5 ng/well), HEK293 cells; format: cell-based; conditions: for EC50: High AT1R Expression
T2 sequence (P30556 1-359): T1 sequence (P30556 1-359)

[4] = biological target: T2, hAT1R; experiment: cell-based
[5] = biological target: T2, hAT1R; experiment: cell-based; conditions: agonist mode; for EC50: read-out: BRET P63 EC50
[6] = Low AT1R Expression, read-out: BRET β-Arrestin2 Low AT1R Expression EC50
[7] = section of the 42nd table ending at r951, example numbering restarts after the DiscoveRx section, read-out: β-arrestin2 EC50

Row | Structure (SMILES) | EC50 [1] [nM] | DiscoveRx β-arrestin2 Ymax (%) [1] [%] | IP-1 Ymax (%) [2] [%] | EC50 [2] [nM] | BRET β-Arrestin2 High AT1R Expression Ymax (%) [3] [%] | EC50 [3] [nM] | BRET β-Arrestin2 Low AT1R Expression Ymax (%) ([4]; Low AT1R Expression) | EC50 [4, 6] [nM] | EC50 [5] [nM] | BRET P63 Ymax [5] [%] | EC50 [4, 7] [nM]
1 | CCc1nc2c(C)cc(C)nc2n1Cc1ccc(-c2cc(-c3cncc(C)c3)ccc2-c2nn[nH]n2)cc1 [Example 60] | 53.7 | 33.5 | 5.3 | 83.1 | 85.8 | 19.6 | 39.4 | 93.3 | > 10000 | – | –
2 | CCc1nc2c(C)cc(C)nc2n1Cc1ccc(-c2cc(-c3cccc(C(F)(F)F)n3)ccc2-c2nn[nH]n2)cc1 [Example 61] | 31.5 | 43.7 | 9.8 | 150 | 81.4 | 16.1 | 38.2 | 108 | 22.3 | 6.4 | –
3 | CCc1nc2c(C)cc(C)nc2n1Cc1ccc(-c2cc(-c3ccc(CO)cc3)ccc2-c2nn[nH]n2)cc1 [Example 63] | 10.2 | 26.1 | 21.4 | 51.3 | 76.6 | 7.5 | 59.3 | 26.5 | 23.2 | 12.4 | –
4 | CCc1nc2c(C)cc(C)nc2n1Cc1ccc(-c2cc(-c3cc(C)ccn3)ccc2-c2nn[nH]n2)cc1 [Example 64] | 6.9 | 67.8 | 30.8 | 23.2 | 92.5 | 1.9 | 98.7 | 3.1 | 2.6 | 41.3 | –
5 | CCc1nc2c(C)cc(C)nc2n1Cc1ccc(-c2cc(-c3ccccc3)ccc2-c2noc(=S)[nH]2)cc1 [Example 72, 3-(4″-((2-ethyl-5,7-dimethyl-3H-imidazo[4,5-b]pyridin-3-yl)methyl)-[1,1′:3′,1″-terphenyl]-4′-yl)-1,2,4-oxadiazole-5(4H)-thione] | 22.6 | 63.6 | 8.5 | 92 | 85.8 | 33.2 | 44.4 | 58.2 | 43 | 11.8 | –
6 | CCc1nc2c(C)cc(C)nc2n1Cc1ccc(-c2cc(N3CCCC(F)(F)C3)ccc2-c2nn[nH]n2)cc1 [Example 83] | 23.9 | 40.5 | 9.0 | 26.9 | 87.3 | 52.1 | 43.1 | 152 | 54.8 | 8.2 | –
7 | CCC1=NC2(CCCC2)C(=O)N1Cc1ccc(-c2cc(-c3ccccc3)ccc2-c2nn[nH]n2)cc1 [Example 112, 3-((6′-(2H-tetrazol-5-yl)-[1,1′:3′,1″-terphenyl]-4-yl)methyl)-2-ethyl-1,3-diazaspiro[4.4]non-1-en-4-one] | 124 | 33.4 | 7.7 | 284 | 78.5 | 30.6 | 39.3 | 174 | 46.8 | 8.2 | –
8 | CCCC1=NC2(CCCC2)C(=O)N1Cc1ccc(-c2cc(-c3ccccc3)ccc2-c2nn[nH]n2)cc1 [Example 114, 3-((6′-(2H-tetrazol-5-yl)-[1,1′:3′,1″-terphenyl]-4-yl)methyl)-2-propyl-1,3-diazaspiro[4.4]non-1-en-4-one] | 49.9 | 46.5 | 8.3 | 122 | 89.2 | 11.9 | 57.2 | 36.6 | 66.5 | 11.8 | –
9 | CCCC1=NC2(CCCC2)C(=O)N1Cc1ccc(-c2cc(N3CCC[C@@H](C)C3)ccc2-c2nn[nH]n2)cc1 [Example 117] | 74 | 30.6 | – | > 100000 | 35.0 | 94.2 | – | > 100000 | > 100000 | – | –
10 | CCCCC1=NC2(CCCC2)C(=O)N1Cc1ccc(-c2cc(-c3ccc(C)cc3)ccc2-c2nn[nH]n2)cc1 [Example 122, 2-butyl-3-((4″-methyl-6′-(2H-tetrazol-5-yl)-[1,1′:3′,1″-terphenyl]-4-yl)methyl)-1,3-diazaspiro[4.4]non-1-en-4-one] | 16.1 | 33.8 | 5.5 | 35.4 | 94.3 | 17.5 | 31.6 | 30.8 | > 10000 | – | –
11 | CCCCC1=NC2(CCCC2)C(=O)N1Cc1ccc(-c2cc(-c3ccc(C(=O)N(C)C)cc3)ccc2-c2nn[nH]n2)cc1 [Example 133] | 5.7 | 18.0 | – | > 100000 | 69.0 | 38.4 | – | > 10000 | > 10000 | – | –
12 | CCCCC1=NC2(CCCC2)C(=O)N1Cc1ccc(-c2cc(-c3cc(C)ccn3)ccc2-c2nn[nH]n2)cc1 [Example 139] | 10.5 | 50.1 | 16.8 | 19.2 | 95.0 | 11.2 | 83.5 | 41.4 | 34.4 | 20.6 | –
13 | CCCCC1=NC2(CCCC2)C(=O)N1Cc1ccc(-c2cc(-c3cc(OC)ccn3)ccc2-c2nn[nH]n2)cc1 [Example 141] | 13.5 | 31.5 | – | > 100000 | 88.6 | 10 | 58.9 | 40.4 | 13.3 | 14.9 | –
14 | CCc1nc2c(C)cc(C)nc2n1Cc1ccc(-c2cc(-c3cccc(C)c3)ccc2-c2nnn[nH]2)nc1 [Example 175, 2-ethyl-5,7-dimethyl-3-((6-(3′-methyl-4-(1H-tetrazol-5-yl)biphenyl-3-yl)pyridin-3-yl)methyl)-3H-imidazo[4,5-b]pyridine] | 6 | 37.0 | 24.1 | 12.8 | 93.0 | 5.2 | – | – | 21.1 | 12.4 | 10.7
15 | CCc1nc2c(C)cc(C)nc2n1Cc1ccc(-c2cc(-c3ccccc3)ccc2-c2nnn[nH]2)nc1 [Example 176, 3-((6-(4-(1H-tetrazol-5-yl)-[1,1′-biphenyl]-3-yl)pyridin-3-yl)methyl)-2-ethyl-5,7-dimethyl-3H-imidazo[4,5-b]pyridine] | 31.8 | 32.0 | 9.8 | 48.9 | 79.1 | 25.5 | – | – | > 100000 | – | 30.6
